The supplement of paper PMC8617591

Tests used:
[1] = test system: Mycobacterium tuberculosis Erdman (autoluminescent); test: AUC25, normalised area under dose response up to IC25 (three-drug combination) (fraction (0-1)); higher = more potent at low dose
Method: (§1)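 DiaMOND equipotent three-drug combination dose responses (10 doses, 1.5- or 2-fold spacing, centred on IC90) against autoluminescent M. tuberculosis Erdman in 8 in vitro models. Read-out is OD600, or luminescence for the intracellular and dormancy models, normalised to untreated wells. Hill-fit Einf, AUC25 and GRinf are potency metrics; FIC50 and FIC90 are total Loewe fractional inhibitory concentrations as log2 (negative = synergy).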

[2] = test system: Mycobacterium tuberculosis Erdman (autoluminescent); test: GRinf, maximum normalised growth rate inhibition (three-drug combination) (unitless (-1 to 1)); higher = less effect (negative = killing)
Method: as §1

[3] = test system: Mycobacterium tuberculosis Erdman (autoluminescent); test: total FIC50 (Loewe) at 50% inhibition, three-drug combination (log2); higher = more antagonistic
Method: as §1

[4] = test system: Mycobacterium tuberculosis Erdman (autoluminescent); test: Einf, fitted maximum growth inhibition of three-drug combination (fraction); higher = stronger maximal inhibition
Method: as §1

[5] = test system: Mycobacterium tuberculosis Erdman (autoluminescent); test: total FIC90 (Loewe) at 90% inhibition, three-drug combination (log2); higher = more antagonistic
Method: as §1

CC(=O)NC[C@H]1CN(c2ccc(N3CCOCC3)c(F)c2)C(=O)O1 [linezolid] + O=[N+]([O-])c1cn2c(n1)OC[C@@H](OCc1ccc(OC(F)(F)F)cc1)C2 [pretomanid] + NC(=O)c1cnccn1 [pyrazinamide]
Details	AUC25, [1]	Einf, [4]	GRinf, [2]	total FIC50, [3]	total FIC90, [5]
in vitro model: acidic pH 5.7, time point: constant (~7 days, model-specific)	0.0949	0.856	-0.473	0.268	–
in vitro model: acidic pH 5.7, time point: terminal (~4-5 doublings, model-specific)	0.0835	0.975	-0.473	0.91	-0.88
in vitro model: intracellular J774, time point: constant = terminal	–	0.986	-0.287	–	0.7

Details	AUC25, [1]	Einf, [4]	GRinf, [2]	total FIC50, [3]	total FIC90, [5]
in vitro model: butyrate, time point: constant (~7 days, model-specific)	0.104	0.885	0.0996	-0.0692	–
in vitro model: butyrate, time point: terminal (~4-5 doublings, model-specific)	0.0881	0.929	0.102	-0.254	0.667
in vitro model: cholesterol 0.05 mM, time point: constant (~7 days, model-specific)	0.14	0.706	-0.191	–	–
in vitro model: cholesterol 0.05 mM, time point: terminal (~4-5 doublings, model-specific)	0.145	0.93	-0.318	0.461	–
in vitro model: cholesterol-high 0.2 mM, time point: constant (~7 days, model-specific)	0.108	0.902	-0.152	0.147	–
in vitro model: cholesterol-high 0.2 mM, time point: terminal (~4-5 doublings, model-specific)	0.113	1	-1	0.0501	0.419
in vitro model: dormancy (butyrate + nitrate, low O2), time point: constant (~7 days, model-specific)	0.056	0.907	0.16	0.49	0.622
in vitro model: dormancy (butyrate + nitrate, low O2), time point: terminal (~4-5 doublings, model-specific)	0.0409	0.985	-0.287	0.47	0.511
in vitro model: standard 7H9 glycerol, time point: constant = terminal	0.0884	0.926	0.0609	0.706	–
in vitro model: valerate, time point: constant (~7 days, model-specific)	0.102	0.808	0.0778	-0.628	–
in vitro model: valerate, time point: terminal (~4-5 doublings, model-specific)	0.0792	0.891	0.177	-0.429	1.41

COc1c(N2C[C@@H]3CCCN[C@@H]3C2)c(F)cc2c(=O)c(C(=O)O)cn(C3CC3)c12 [moxifloxacin] + CO[C@H]1/C=C/O[C@@]2(C)Oc3c(C)c(O)c4c(O)c(c(/C=N/N5CCN(C6CCCC6)CC5)c(O)c4c3C2=O)NC(=O)/C(C)=C\C=C\[C@H](C)[C@H](O)[C@@H](C)[C@@H](O)[C@@H](C)[C@H](OC(C)=O)[C@@H]1C [rifapentine] + CO[C@H]1/C=C/O[C@@]2(C)Oc3c(C)c(O)c4c(O)c(c(/C=N/N5CCN(C)CC5)c(O)c4c3C2=O)NC(=O)/C(C)=C\C=C\[C@H](C)[C@H](O)[C@@H](C)[C@@H](O)[C@@H](C)[C@H](OC(C)=O)[C@@H]1C [rifampicin]
Details	AUC25, [1]	Einf, [4]	GRinf, [2]	total FIC50, [3]	total FIC90, [5]
in vitro model: acidic pH 5.7, time point: constant (~7 days, model-specific)	0.0724	0.838	0.0128	0.153	–
in vitro model: acidic pH 5.7, time point: terminal (~4-5 doublings, model-specific)	0.0677	0.973	-0.122	0.25	0.137
in vitro model: intracellular J774, time point: constant = terminal	–	0.952	-0.11	–	1.1

Details	AUC25, [1]	Einf, [4]	GRinf, [2]	total FIC50, [3]	total FIC90, [5]
in vitro model: butyrate, time point: constant (~7 days, model-specific)	0.102	0.883	0.109	0.138	2.35
in vitro model: butyrate, time point: terminal (~4-5 doublings, model-specific)	0.0922	0.952	0.0591	0.217	0.559
in vitro model: cholesterol 0.05 mM, time point: constant (~7 days, model-specific)	0.101	0.593	0.0182	0.609	–
in vitro model: cholesterol 0.05 mM, time point: terminal (~4-5 doublings, model-specific)	0.0956	0.891	-0.0633	0.426	1.76
in vitro model: cholesterol-high 0.2 mM, time point: constant (~7 days, model-specific)	0.0581	0.825	-0.0146	0.356	–
in vitro model: cholesterol-high 0.2 mM, time point: terminal (~4-5 doublings, model-specific)	0.0631	1	-0.758	0.707	0.468
in vitro model: dormancy (butyrate + nitrate, low O2), time point: constant (~7 days, model-specific)	0.0643	0.868	0.252	0.441	0.199
in vitro model: dormancy (butyrate + nitrate, low O2), time point: terminal (~4-5 doublings, model-specific)	0.0509	0.977	-0.14	0.539	0.615
in vitro model: standard 7H9 glycerol, time point: constant = terminal	0.0451	0.821	0.307	0.381	–
in vitro model: valerate, time point: constant (~7 days, model-specific)	0.0421	0.846	0.0605	0.542	–
in vitro model: valerate, time point: terminal (~4-5 doublings, model-specific)	0.0285	0.934	0.041	0.547	0.3

COc1c(N2C[C@@H]3CCCN[C@@H]3C2)c(F)cc2c(=O)c(C(=O)O)cn(C3CC3)c12 [moxifloxacin] + NC(=O)c1cnccn1 [pyrazinamide] + CO[C@H]1/C=C/O[C@@]2(C)Oc3c(C)c(O)c4c(O)c(c(/C=N/N5CCN(C6CCCC6)CC5)c(O)c4c3C2=O)NC(=O)/C(C)=C\C=C\[C@H](C)[C@H](O)[C@@H](C)[C@@H](O)[C@@H](C)[C@H](OC(C)=O)[C@@H]1C [rifapentine]
Details	AUC25, [1]	Einf, [4]	GRinf, [2]	total FIC50, [3]	total FIC90, [5]
in vitro model: acidic pH 5.7, time point: constant (~7 days, model-specific)	0.0979	0.916	-0.164	0.396	–
in vitro model: acidic pH 5.7, time point: terminal (~4-5 doublings, model-specific)	0.0717	0.996	-0.192	0.991	-0.209
in vitro model: intracellular J774, time point: constant = terminal	–	0.968	-0.65	–	0.713

Details	AUC25, [1]	Einf, [4]	GRinf, [2]	total FIC50, [3]	total FIC90, [5]
in vitro model: butyrate, time point: constant (~7 days, model-specific)	0.118	0.907	0.0713	0.589	0.846
in vitro model: butyrate, time point: terminal (~4-5 doublings, model-specific)	0.0899	0.961	0.0339	0.781	1.19
in vitro model: cholesterol 0.05 mM, time point: constant (~7 days, model-specific)	0.116	0.617	-0.407	–	–
in vitro model: cholesterol 0.05 mM, time point: terminal (~4-5 doublings, model-specific)	0.0984	0.913	-0.171	1.31	–
in vitro model: cholesterol-high 0.2 mM, time point: constant (~7 days, model-specific)	0.0917	0.947	-0.459	0.921	–
in vitro model: cholesterol-high 0.2 mM, time point: terminal (~4-5 doublings, model-specific)	0.0805	1	-0.837	1.23	1.05
in vitro model: dormancy (butyrate + nitrate, low O2), time point: constant (~7 days, model-specific)	0.0716	0.862	0.214	0.262	0.265
in vitro model: dormancy (butyrate + nitrate, low O2), time point: terminal (~4-5 doublings, model-specific)	0.07	0.979	-0.13	0.473	1.04
in vitro model: standard 7H9 glycerol, time point: constant = terminal	0.0577	0.882	0.0649	–	–
in vitro model: valerate, time point: constant (~7 days, model-specific)	0.0789	0.81	0.162	0.849	–
in vitro model: valerate, time point: terminal (~4-5 doublings, model-specific)	0.0473	0.929	0.0611	0.778	0.693

COc1c(N2C[C@@H]3CCCN[C@@H]3C2)c(F)cc2c(=O)c(C(=O)O)cn(C3CC3)c12 [moxifloxacin] + NC(=O)c1cnccn1 [pyrazinamide] + CO[C@H]1/C=C/O[C@@]2(C)Oc3c(C)c(O)c4c(O)c(c(/C=N/N5CCN(C)CC5)c(O)c4c3C2=O)NC(=O)/C(C)=C\C=C\[C@H](C)[C@H](O)[C@@H](C)[C@@H](O)[C@@H](C)[C@H](OC(C)=O)[C@@H]1C [rifampicin]
Details	AUC25, [1]	Einf, [4]	GRinf, [2]	total FIC50, [3]	total FIC90, [5]
in vitro model: acidic pH 5.7, time point: constant (~7 days, model-specific)	0.0731	0.851	-0.155	0.177	–
in vitro model: acidic pH 5.7, time point: terminal (~4-5 doublings, model-specific)	0.0678	0.99	-0.208	0.423	-0.913
in vitro model: intracellular J774, time point: constant = terminal	–	0.99	-0.539	–	0.76

Details	AUC25, [1]	Einf, [4]	GRinf, [2]	total FIC50, [3]	total FIC90, [5]
in vitro model: butyrate, time point: constant (~7 days, model-specific)	0.119	0.869	0.125	0.49	2.29
in vitro model: butyrate, time point: terminal (~4-5 doublings, model-specific)	0.114	0.977	-0.00285	0.525	1.3
in vitro model: cholesterol 0.05 mM, time point: constant (~7 days, model-specific)	0.096	0.6	0.1	–	–
in vitro model: cholesterol 0.05 mM, time point: terminal (~4-5 doublings, model-specific)	0.0868	0.868	-0.00841	1.23	–
in vitro model: cholesterol-high 0.2 mM, time point: constant (~7 days, model-specific)	0.0908	0.912	-0.393	1.26	–
in vitro model: cholesterol-high 0.2 mM, time point: terminal (~4-5 doublings, model-specific)	0.0879	1	-0.949	1.58	1.47
in vitro model: dormancy (butyrate + nitrate, low O2), time point: constant (~7 days, model-specific)	0.0806	0.87	0.204	0.465	-0.0278
in vitro model: dormancy (butyrate + nitrate, low O2), time point: terminal (~4-5 doublings, model-specific)	0.0656	0.978	-0.115	0.411	0.407
in vitro model: standard 7H9 glycerol, time point: constant = terminal	0.0452	0.781	0.36	–	–
in vitro model: valerate, time point: constant (~7 days, model-specific)	0.0626	0.785	0.176	0.864	–
in vitro model: valerate, time point: terminal (~4-5 doublings, model-specific)	0.0319	0.909	0.127	0.853	0.657
